These results are taken from US20090222080A1, “MEDICAL STENT PROVIDED WITH INHIBITORS OF TUMOR NECROSIS FACTOR-ALPHA” (Picarus NV SA, priority 2005, published 2009).

The structures appear in SMILES notation.

One assay concerns ApoE*3-Leiden mice. The experiment in a line: mouse femoral artery cuff model of restenosis (neointima formation). It is filed as in vivo. The settings on record: cuff around the femoral artery for 14 days, cuffs loaded with 1% (w/w) thalidomide, p=0.005. From the text:
(§1) For the mouse study, ApoE*3-Leiden mice and TNF knockout mice were used to determine the impact of TNF-alpha on restenosis development after cuff placement around the femoral artery for 14 days. In another ApoE*3-Leiden mice group the cuffs were loaded with 1% (w/w) thalidomide, a TNF biosynthesis inhibitor.

The test system of a further assay is TNF protein. The experiment in a line: vascular levels of TNF protein after local thalidomide in the mouse cuff model. The settings on record: thalidomide administered locally (cuff). It is filed as in vivo, mice. The protocol: as §1
Furthermore, the vascular levels of TNF protein were decreased when thalidomide was administered locally.

In the case of `O=C1CCC(N2C(=O)c3ccccc3C2=O)C(=O)N1` (centres unmarked) [thalidomide, 2-(2,6-dioxo-3-piperidinyl)-1H-isoindole-1,3(2H)-dione], the neointima formation entry in the assay on ApoE*3-Leiden mice is listed as “significantly less neointima formation”. In addition, the “vascular levels of TNF protein” value in the assay with TNF protein is recorded as “decreased”.
